{"source": "ChEMBL document CHEMBL5233220", "about": "“A review of currently identified small molecule modulators of microRNA function” (Eur J Med Chem, 2020)", "key": {"[1]": {"assay": "Binding affinity to pre-miR-21 (unknown origin) at A bulge assessed as dissociation constant by dicer assay"}, "[2]": {"assay": "Binding affinity to pre-miR-21 (unknown origin) at U bulge assessed as dissociation constant by dicer assay"}, "[3]": {"assay": "Inhibition of pre-miR-21 (unknown origin)"}, "[4]": {"target": "Protein argonaute-2 (Homo sapiens, UniProt Q9UKV8)", "sequence (Q9UKV8 whole entry)": "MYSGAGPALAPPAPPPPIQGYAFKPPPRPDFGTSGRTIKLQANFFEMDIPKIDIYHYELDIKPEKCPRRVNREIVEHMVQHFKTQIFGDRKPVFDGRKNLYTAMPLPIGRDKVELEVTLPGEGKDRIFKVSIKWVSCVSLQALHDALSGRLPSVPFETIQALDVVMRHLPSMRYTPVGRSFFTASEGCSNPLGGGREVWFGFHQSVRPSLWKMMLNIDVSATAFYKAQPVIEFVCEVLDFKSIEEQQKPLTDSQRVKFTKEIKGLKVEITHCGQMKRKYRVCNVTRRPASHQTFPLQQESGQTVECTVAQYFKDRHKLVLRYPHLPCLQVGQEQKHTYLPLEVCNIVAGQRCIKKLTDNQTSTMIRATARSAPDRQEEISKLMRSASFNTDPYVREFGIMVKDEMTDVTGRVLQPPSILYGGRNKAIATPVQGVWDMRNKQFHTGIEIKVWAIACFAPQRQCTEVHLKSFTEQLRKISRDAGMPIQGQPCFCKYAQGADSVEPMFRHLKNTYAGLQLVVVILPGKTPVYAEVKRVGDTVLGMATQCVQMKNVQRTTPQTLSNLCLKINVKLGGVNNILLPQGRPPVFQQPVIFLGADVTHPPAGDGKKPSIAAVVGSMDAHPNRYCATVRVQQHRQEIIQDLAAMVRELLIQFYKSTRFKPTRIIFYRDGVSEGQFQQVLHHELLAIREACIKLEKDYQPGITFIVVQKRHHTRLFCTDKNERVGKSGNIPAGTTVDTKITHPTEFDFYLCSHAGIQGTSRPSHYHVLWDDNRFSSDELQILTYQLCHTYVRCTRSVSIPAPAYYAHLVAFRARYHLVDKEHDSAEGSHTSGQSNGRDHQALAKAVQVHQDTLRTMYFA", "assay": "Binding affinity to AGO2 (unknown origin) assessed as dissociation constant by RIP assay"}, "[5]": {"assay": "Binding affinity to miR-27a (unknown origin) assessed as dissociation constant by FP assay"}, "[6]": {"assay": "Inhibition of miR-27a (unknown origin) maturation at 5 uM relative to control"}, "[7]": {"assay": "Inhibition of miR-96 (unknown origin)", "design": "species or system Homo sapiens"}, "[8]": {"assay": "Binding affinity to miR-96 (unknown origin) assessed as dissociation constant", "design": "species or system Homo sapiens"}, "[9]": {"assay": "Inhibition of miR-18a (unknown origin) […] by qRT-PCR analysis"}, "[10]": {"assay": "Binding affinity to miR-18a (unknown origin) assessed as dissociation constant"}, "[11]": {"assay": "Binding affinity to pre-miR-21 (unknown origin) assessed as dissociation constant by fluorescence-based assay"}, "[12]": {"assay": "Binding affinity to pre-miR-21 (unknown origin) assessed as dissociation constant"}, "[13]": {"assay": "Inhibition of human topoisomerase 2"}, "[14]": {"assay": "Binding affinity to miR-10b (unknown origin) assessed as dissociation constant"}, "[15]": {"system": "HeLa", "assay": "Inhibition of pre-miR-10b maturation in human HeLa cells at 100 uM by luciferase assay relative to control", "assay_type": "cell-based"}, "[16]": {"system": "HeLa", "assay": "Inhibition of miR-10b maturation in human HeLa cells at 100 uM by luciferase assay relative to control", "assay_type": "cell-based"}, "[17]": {"assay": "Inhibition of pre-miR-372 (unknown origin)"}}, "note": "Values joined by “and” are separate entries in the source; they are usually repeats but may differ in a detail not shown here. Identical values can stand only once.", "data": [{"smiles": "O=C1c2c(O)ccc(O)c2C(=O)c2c(NCCNCCO)ccc(NCCNCCO)c21", "note": "[MITOXANTRONE]", "values": [{"measurement": "Kd", "setting": "[1]", "value": 33, "unit": "nM"}, {"measurement": "Kd", "setting": "[2]", "value": 46, "unit": "nM"}, {"measurement": "IC50", "setting": "[3]", "value": 3000, "unit": "nM"}]}, {"smiles": "CC(NS(=O)(=O)c1ccc2nc(O)c(O)nc2c1)C(=O)O", "note": "(configuration not stated)", "values": [{"measurement": "Kd", "setting": "[4]", "value": 126000, "unit": "nM"}]}, {"smiles": "CNC(=O)c1cc(Oc2ccc(NC(=O)Nc3ccc(Cl)c(C(F)(F)F)c3)c(F)c2)ccn1", "note": "[REGORAFENIB]", "values": [{"measurement": "Kd", "setting": "[5]", "value": 730, "unit": "nM"}, {"measurement": "inhibition", "setting": "[6]", "value": 25, "unit": "%"}]}, {"smiles": "CN1CCN(c2ccc(-c3ccc4nc(-c5cc(C(C)(C)C)c(OCCCC(=O)NCCCN=[N+]=[N-])c(C(C)(C)C)c5)[nH]c4c3)cc2)CC1", "values": [{"measurement": "IC50", "setting": "[7]", "value": "50 nM and 200 nM"}, {"measurement": "Kd", "setting": "[8]", "value": 85, "unit": "nM"}, {"measurement": "IC50", "setting": "[9]", "value": 10000, "unit": "nM"}, {"measurement": "Kd", "setting": "[10]", "value": 30000, "unit": "nM"}]}, {"smiles": "NC(=O)C1=Cc2ccccc2C/C1=N/CC(=S)Nc1ccccc1", "values": [{"measurement": "Kd", "setting": "[11]", "value": 3700, "unit": "nM"}, {"measurement": "Kd", "setting": "[12]", "value": 3700, "unit": "nM"}]}, {"smiles": "CCn1cc(C(=O)O)c(=O)c2cc(F)c(N3CCNCC3)nc21", "note": "[ENOXACIN]", "values": [{"measurement": "IC50", "setting": "[13]", "value": 30000, "unit": "nM"}]}, {"smiles": "[N-]=[N+]=NC[C@H]1O[C@@H](O[C@H]2[C@H](O[C@H]3O[C@H](CNC(=N)N)[C@@H](O)[C@H](O)[C@H]3NC(=N)N)[C@@H](NC(=N)N)CC[C@@H]2O)[C@H](O)[C@@H]1O[C@H]1O[C@@H](CNC(=N)N)C[C@H](O)[C@H]1NC(=N)N", "values": [{"measurement": "Kd", "setting": "[14]", "value": 417, "unit": "nM"}, {"measurement": "inhibition", "setting": "[15]", "value": 30, "unit": "%"}, {"measurement": "inhibition", "setting": "[16]", "value": 50, "unit": "%"}]}, {"smiles": "CN(c1ccccc1)C1c2ccccc2N=C(NCCCNCCCCNCCCN)C1(C)C", "note": "(configuration not stated)", "values": [{"measurement": "IC50", "setting": "[17]", "value": 1060, "unit": "nM"}]}]}
